Laboratory results reported in the supplement of paper PMC10307832.

Assays:
Test in all cases: relative viability (nuclei count vs DMSO), 5 days (fraction); higher = more cells survive
LOU-NH91 = system: LOU-NH91
Procedure, shortened: (§1)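 Lung cancer cell lines were pin-tool dosed in 1536-well plates on the day after seeding, with either a lone drug or a fixed anchor-drug dose plus five library-drug doses (not always all listed) in √10 steps. Nuclei were counted on 4× images after 5 days. Relative viability is the ratio of treated-well to vehicle-well nuclei counts, with each value a median of duplicate plates.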

HOP-62 = system: HOP-62
Procedure, shortened: as §1

BEN = system: BEN
Procedure, shortened: as §1

NCI-H647 = system: NCI-H647
Procedure, shortened: as §1

NCI-H1993 = system: NCI-H1993
Procedure, shortened: as §1

NCI-H1437 = system: NCI-H1437
Procedure, shortened: as §1

NCI-H441 = system: NCI-H441
Procedure, shortened: as §1

NCI-H2170 = system: NCI-H2170
Procedure, shortened: as §1

PC-14 = system: PC-14
Procedure, shortened: as §1

NCI-H1666 = system: NCI-H1666
Procedure, shortened: as §1

NCI-H1355 = system: NCI-H1355
Procedure, shortened: as §1

ChaGo-K-1 = system: ChaGo-K-1
Procedure, shortened: as §1

NCI-H2126 = system: NCI-H2126
Procedure, shortened: as §1

EKVX = system: EKVX
Procedure, shortened: as §1

LK-2 = system: LK-2
Procedure, shortened: as §1

LXF-289 = system: LXF-289
Procedure, shortened: as §1

NCI-H727 = system: NCI-H727
Procedure, shortened: as §1

RERF-LC-KJ = system: RERF-LC-KJ
Procedure, shortened: as §1

SK-MES-1 = system: SK-MES-1
Procedure, shortened: as §1

NCI-H1944 = system: NCI-H1944
Procedure, shortened: as §1

HCC-827 = system: HCC-827
Procedure, shortened: as §1

**Q.** With `Cc1csc(=NC2CCCCC2)n1/N=C/c1ccc(O)c(O)c1O` [MIM1] + CC1(C)CCC(c2ccc(Cl)cc2)=C(CN2CCN(c3ccc(C(=O)NS(=O)(=O)c4ccc(N[C@H](CCN5CCOCC5)CSc5ccccc5)c(S(=O)(=O)C(F)(F)F)c4)cc3)CC2)C1 [Navitoclax] (partner 0.5 µM) as the molecule, how does the relative viability (LOU-NH91; first compound 0.2 µM) read?
**A.** 0.588

**Q.** What about the relative viability (LOU-NH91; first compound 0.6325 µM) of the same molecule?
**A.** 0.69

**Q.** And the relative viability (LOU-NH91; first compound 2 µM)?
**A.** 0.532

**Q.** And the relative viability (LOU-NH91; first compound 6.325 µM)?
**A.** 0.492

**Q.** What about the relative viability (LOU-NH91; first compound 20 µM) of the same molecule?
**A.** 0.313

**Q.** And the relative viability (HOP-62; first compound 0.2 µM)?
**A.** 1.11

**Q.** What about the relative viability (HOP-62; first compound 0.6325 µM) of the same molecule?
**A.** 1.11

**Q.** And the relative viability (HOP-62; first compound 2 µM)?
**A.** 0.525

**Q.** And the relative viability (HOP-62; first compound 6.325 µM)?
**A.** 0.86

**Q.** What about the relative viability (HOP-62; first compound 20 µM) of the same molecule?
**A.** 0.559

**Q.** And the relative viability (BEN; first compound 0.2 µM)?
**A.** 0.0709

**Q.** And the relative viability (BEN; first compound 0.6325 µM)?
**A.** 0.0746

**Q.** And the relative viability (BEN; first compound 2 µM)?
**A.** 0.0631

**Q.** And the relative viability (BEN; first compound 6.325 µM)?
**A.** 0.0911

**Q.** What about the relative viability (BEN; first compound 20 µM) of the same molecule?
**A.** 0.0543

**Q.** And the relative viability (NCI-H647; first compound 0.2 µM)?
**A.** 1.2

**Q.** And the relative viability (NCI-H647; first compound 0.6325 µM)?
**A.** 0.989

**Q.** What about the relative viability (NCI-H647; first compound 2 µM) of the same molecule?
**A.** 0.742

**Q.** And the relative viability (NCI-H647; first compound 6.325 µM)?
**A.** 0.809

**Q.** And the relative viability (NCI-H647; first compound 20 µM)?
**A.** 0.617

**Q.** And the relative viability (NCI-H1993; first compound 0.2 µM)?
**A.** 0.911

**Q.** What about the relative viability (NCI-H1993; first compound 0.6325 µM) of the same molecule?
**A.** 0.951

**Q.** And the relative viability (NCI-H1993; first compound 2 µM)?
**A.** 0.854

**Q.** What about the relative viability (NCI-H1993; first compound 6.325 µM) of the same molecule?
**A.** 0.822

**Q.** What about the relative viability (NCI-H1993; first compound 20 µM) of the same molecule?
**A.** 0.425

**Q.** And the relative viability (NCI-H1437; first compound 0.2 µM)?
**A.** 0.989

**Q.** What about the relative viability (NCI-H1437; first compound 0.6325 µM) of the same molecule?
**A.** 1.1

**Q.** What about the relative viability (NCI-H1437; first compound 2 µM) of the same molecule?
**A.** 0.998

**Q.** And the relative viability (NCI-H1437; first compound 6.325 µM)?
**A.** 0.654

**Q.** And the relative viability (NCI-H1437; first compound 20 µM)?
**A.** 0.27

**Q.** What about the relative viability (NCI-H441; first compound 0.2 µM) of the same molecule?
**A.** 0.58

**Q.** And the relative viability (NCI-H441; first compound 0.6325 µM)?
**A.** 0.912

**Q.** What about the relative viability (NCI-H441; first compound 2 µM) of the same molecule?
**A.** 0.706

**Q.** What about the relative viability (NCI-H441; first compound 6.325 µM) of the same molecule?
**A.** 0.577

**Q.** And the relative viability (NCI-H441; first compound 20 µM)?
**A.** 0.24

**Q.** What about the relative viability (NCI-H2170; first compound 0.2 µM) of the same molecule?
**A.** 0.571

**Q.** What about the relative viability (NCI-H2170; first compound 0.6325 µM) of the same molecule?
**A.** 0.636

**Q.** What about the relative viability (NCI-H2170; first compound 2 µM) of the same molecule?
**A.** 0.549

**Q.** And the relative viability (NCI-H2170; first compound 6.325 µM)?
**A.** 0.468

**Q.** And the relative viability (NCI-H2170; first compound 20 µM)?
**A.** 0.298

**Q.** What about the relative viability (PC-14; first compound 0.2 µM) of the same molecule?
**A.** 1.02

**Q.** What about the relative viability (PC-14; first compound 0.6325 µM) of the same molecule?
**A.** 1.03

**Q.** What about the relative viability (PC-14; first compound 2 µM) of the same molecule?
**A.** 0.988

**Q.** What about the relative viability (PC-14; first compound 6.325 µM) of the same molecule?
**A.** 0.894

**Q.** And the relative viability (PC-14; first compound 20 µM)?
**A.** 0.133

**Q.** And the relative viability (NCI-H1666; first compound 0.2 µM)?
**A.** 1

**Q.** And the relative viability (NCI-H1666; first compound 0.6325 µM)?
**A.** 1.15

**Q.** What about the relative viability (NCI-H1666; first compound 2 µM) of the same molecule?
**A.** 1.11

**Q.** What about the relative viability (NCI-H1666; first compound 6.325 µM) of the same molecule?
**A.** 0.727

**Q.** And the relative viability (NCI-H1666; first compound 20 µM)?
**A.** 0.667

**Q.** What about the relative viability (NCI-H1355; first compound 0.2 µM) of the same molecule?
**A.** 0.977

**Q.** And the relative viability (NCI-H1355; first compound 0.6325 µM)?
**A.** 1.03

**Q.** What about the relative viability (NCI-H1355; first compound 2 µM) of the same molecule?
**A.** 1.07

**Q.** What about the relative viability (NCI-H1355; first compound 6.325 µM) of the same molecule?
**A.** 0.793

**Q.** And the relative viability (NCI-H1355; first compound 20 µM)?
**A.** 0.95

**Q.** What about the relative viability (ChaGo-K-1; first compound 0.2 µM) of the same molecule?
**A.** 1.14

**Q.** And the relative viability (ChaGo-K-1; first compound 0.6325 µM)?
**A.** 0.741

**Q.** And the relative viability (ChaGo-K-1; first compound 2 µM)?
**A.** 0.943

**Q.** And the relative viability (ChaGo-K-1; first compound 6.325 µM)?
**A.** 0.717

**Q.** What about the relative viability (ChaGo-K-1; first compound 20 µM) of the same molecule?
**A.** 0.31

**Q.** And the relative viability (NCI-H2126; first compound 0.2 µM)?
**A.** 0.898

**Q.** What about the relative viability (NCI-H2126; first compound 0.6325 µM) of the same molecule?
**A.** 0.854

**Q.** What about the relative viability (NCI-H2126; first compound 2 µM) of the same molecule?
**A.** 0.974

**Q.** And the relative viability (NCI-H2126; first compound 6.325 µM)?
**A.** 0.831

**Q.** What about the relative viability (NCI-H2126; first compound 20 µM) of the same molecule?
**A.** 0.812

**Q.** And the relative viability (EKVX; first compound 0.2 µM)?
**A.** 0.922

**Q.** And the relative viability (EKVX; first compound 0.6325 µM)?
**A.** 1.07

**Q.** What about the relative viability (EKVX; first compound 2 µM) of the same molecule?
**A.** 0.965

**Q.** What about the relative viability (EKVX; first compound 6.325 µM) of the same molecule?
**A.** 0.761

**Q.** And the relative viability (EKVX; first compound 20 µM)?
**A.** 0.293

**Q.** And the relative viability (LK-2; first compound 0.2 µM)?
**A.** 0.924

**Q.** What about the relative viability (LK-2; first compound 0.6325 µM) of the same molecule?
**A.** 0.847

**Q.** And the relative viability (LK-2; first compound 2 µM)?
**A.** 0.657

**Q.** What about the relative viability (LK-2; first compound 6.325 µM) of the same molecule?
**A.** 1.09

**Q.** What about the relative viability (LK-2; first compound 20 µM) of the same molecule?
**A.** 0.209

**Q.** What about the relative viability (LXF-289; first compound 0.2 µM) of the same molecule?
**A.** 0.921

**Q.** And the relative viability (LXF-289; first compound 0.6325 µM)?
**A.** 0.939

**Q.** What about the relative viability (LXF-289; first compound 2 µM) of the same molecule?
**A.** 0.921

**Q.** And the relative viability (LXF-289; first compound 6.325 µM)?
**A.** 0.768

**Q.** And the relative viability (LXF-289; first compound 20 µM)?
**A.** 0.487

**Q.** And the relative viability (NCI-H727; first compound 0.2 µM)?
**A.** 0.441

**Q.** And the relative viability (NCI-H727; first compound 0.6325 µM)?
**A.** 0.493

**Q.** What about the relative viability (NCI-H727; first compound 2 µM) of the same molecule?
**A.** 0.324

**Q.** What about the relative viability (NCI-H727; first compound 6.325 µM) of the same molecule?
**A.** 0.346

**Q.** And the relative viability (NCI-H727; first compound 20 µM)?
**A.** 0.27

**Q.** And the relative viability (RERF-LC-KJ; first compound 0.2 µM)?
**A.** 0.848

**Q.** And the relative viability (RERF-LC-KJ; first compound 0.6325 µM)?
**A.** 0.725

**Q.** And the relative viability (RERF-LC-KJ; first compound 2 µM)?
**A.** 0.534

**Q.** And the relative viability (RERF-LC-KJ; first compound 6.325 µM)?
**A.** 0.568

**Q.** What about the relative viability (RERF-LC-KJ; first compound 20 µM) of the same molecule?
**A.** 0.245

**Q.** What about the relative viability (SK-MES-1; first compound 0.2 µM) of the same molecule?
**A.** 1.29

**Q.** And the relative viability (SK-MES-1; first compound 0.6325 µM)?
**A.** 1.26

**Q.** And the relative viability (SK-MES-1; first compound 2 µM)?
**A.** 1.28

**Q.** What about the relative viability (SK-MES-1; first compound 6.325 µM) of the same molecule?
**A.** 0.939

**Q.** And the relative viability (SK-MES-1; first compound 20 µM)?
**A.** 0.795

**Q.** And the relative viability (NCI-H1944; first compound 0.2 µM)?
**A.** 0.985

**Q.** And the relative viability (NCI-H1944; first compound 0.6325 µM)?
**A.** 1.04

**Q.** And the relative viability (NCI-H1944; first compound 2 µM)?
**A.** 0.845

**Q.** And the relative viability (NCI-H1944; first compound 6.325 µM)?
**A.** 0.938

**Q.** And the relative viability (NCI-H1944; first compound 20 µM)?
**A.** 1.11

**Q.** And the relative viability (HCC-827; first compound 0.2 µM)?
**A.** 0.961

**Q.** And the relative viability (HCC-827; first compound 0.6325 µM)?
**A.** 1.01

**Q.** What about the relative viability (HCC-827; first compound 2 µM) of the same molecule?
**A.** 0.977

**Q.** And the relative viability (HCC-827; first compound 6.325 µM)?
**A.** 0.39

**Q.** What about the relative viability (HCC-827; first compound 20 µM) of the same molecule?
**A.** 0.696
